Experimental data reported in ChEMBL document CHEMBL1149084, “Synthesis and evaluation of 2-pyridyl pyrimidines with in vitro antiplasmodial and antileishmanial activity” (Bioorg Med Chem Lett, 2009).

Legend:
[1] = tested on: Plasmodium falciparum; assay: Antiplasmodial activity against chloroquine-resistant Plasmodium falciparum K1; assay type: functional, organism-based
[2] = tested on: L6; assay: Cytotoxicity against rat L6 cells; assay type: ADME, cell-based
[3] = tested on: Leishmania donovani; assay: Antileishmanial activity against Leishmania donovani; assay type: functional, organism-based
[4] = tested on: Plasmodium falciparum; assay: Antimalarial activity against chloroquine-resistant Plasmodium falciparum Dd2 after 24 hrs by [3H]hypoxanthine uptake; assay type: functional, organism-based
[5] = Inhibition of GST-tagged Plasmodium falciparum MetAP 1B by […]
[6] = Selectivity ratio of IC50 for rat L6 cells to IC50 for Leishmania donovani

SMILES	IC50 [1]	IC50 [2]	IC50 [3]	IC50 [4]	IC50 [5]	selectivity ratio [6]
Cc1cc(NCCc2ccccc2)nc(-c2ccccn2)n1	3.7 µM	18.3 µM	3 µM	–	–	–
Cc1nc(-c2ccccn2)nc(N2CCC(c3ccccc3)CC2)c1Cl	8.9 µM	183 µM	1.1 µM	–	–	–
Cc1nc(-c2ccccn2)nc(NCCNc2cc(C(F)(F)F)ccn2)c1Cl	2.74 µM	5.2 µM	0.28 µM	–	–	–
Cc1nc(-c2ccccn2)nc(N2CCN(CCO)CC2)c1Cl	7.5 µM	270 µM	156 µM	–	–	–
Cc1nc(-c2ccccn2)nc(NCCS(=O)(=O)c2ccccc2)c1Cl	10.4 µM	72.8 µM	11.4 µM	–	–	–
Cc1nc(-c2ccccn2)nc(NCC2CCOC2)c1Cl (stereo unspecified)	15.3 µM	125 µM	10.5 µM	–	–	–
Cc1nc(-c2ccccn2)nc(NCc2ccc(S(C)(=O)=O)cc2)c1Cl	10.1 µM	93.6 µM	10.7 µM	–	–	–
Cc1nc(-c2ccccn2)nc(NCc2ccccc2)c1Cl	3.2 µM	70.1 µM	0.47 µM	–	–	–
Cc1nc(-c2ccccn2)nc(NCCc2ccc(S(C)(=O)=O)cc2)c1Cl	8.2 µM	104 µM	7.4 µM	–	–	–
Cc1nc(-c2ccccn2)nc(NCCc2cccc(Cl)c2)c1Cl	2.5 µM	32.6 µM	0.44 µM	–	–	–
Cc1nc(-c2ccccn2)nc(N2CCC(c3ccccc3)C2)c1Cl (stereo unspecified)	4.7 µM	133 µM	0.39 µM	–	–	–
Cc1nc(-c2ccccn2)nc(NCCc2ccccc2)c1Cl	9.8 µM	25.5 µM	0.5 µM	3.1 µM	0.11 µM	–
Cc1nc(-c2ccccn2)nc(NCCCc2ccccc2)c1Cl	1.9 µM	73.5 µM	0.48 µM	–	–	–
Cc1nc(-c2ccccn2)nc(N(C)CCc2ccccc2)c1Cl	3.5 µM	62.5 µM	0.32 µM	–	–	–
COc1ccc(CCNc2nc(-c3ccccn3)nc(C)c2Cl)cc1	2.5 µM	8.7 µM	0.43 µM	–	–	–
Cc1nc(-c2ccccn2)nc(NCCc2ccncc2)c1Cl	9.5 µM	110 µM	14.1 µM	–	–	–

SMILES	IC50 [1]	IC50 [2]	IC50 [3]	IC50 [4]	IC50 [5]	selectivity ratio [6]
Cc1nc(-c2ccccn2)nc(NC2Cc3ccccc3C2)c1Cl	3.7 µM	33.2 µM	0.42 µM	–	–	–
CCN(CC)c1nc(-c2ccccn2)nc(C)c1Cl	9 µM	148 µM	1.22 µM	–	–	> 10
Cc1nc(-c2ccccn2)nc(NCC2CCCCC2)c1Cl	2.4 µM	42.4 µM	0.31 µM	–	–	–
Cc1nc(-c2ccccn2)nc(NCCC2CCCCC2)c1Cl	2.3 µM	49.5 µM	0.26 µM	–	–	–
Cc1nc(-c2ccccn2)nc(N2CCCC2Cc2ccccc2)c1Cl (stereo unspecified)	4.3 µM	92.3 µM	0.63 µM	–	–	–
Cc1nc(-c2ccccn2)nc(N2CCC(Cc3ccccc3)C2)c1Cl (stereo unspecified)	3.1 µM	88 µM	0.38 µM	–	–	–
Cc1nc(-c2ccccn2)nc(N2CCN(S(=O)(=O)c3ccccc3)CC2)c1Cl	11.6 µM	210 µM	54.4 µM	–	–	–
Cc1nc(-c2ccccn2)nc(NCCc2ccc(Cl)cc2)c1Cl	2 µM	40.4 µM	0.45 µM	–	–	–
Cc1nc(-c2ccccn2)nc(N)c1Cl	20.8 µM	85.3 µM	3.3 µM	–	–	> 10
Cc1nc(-c2ccccn2)nc(N(C)C)c1Cl	15.1 µM	115 µM	1.1 µM	–	–	> 10
FC(F)(F)c1cc(NCCc2ccccc2)nc(-c2ccccn2)n1	8.2 µM	74.2 µM	2 µM	–	–	–
Cc1nc(-c2ccccn2)nc(N2CCCC2c2ccccc2)c1Cl (stereo unspecified)	4.1 µM	76.5 µM	0.7 µM	–	–	–
Cc1nc(-c2ccccn2)nc(NCCc2ccccc2Cl)c1Cl	6.3 µM	91.6 µM	1.2 µM	–	–	–
C[C@@H]1CC[C@H]2[C@@H](C)C(=O)O[C@@H]3O[C@@]4(C)CC[C@@H]1[C@]32OO4 [ARTEMISININ]	0.005 µM	> 170 µM	–	–	–	–
CCN(CC)CCCC(C)Nc1ccnc2cc(Cl)ccc12 (stereo unspecified) [CHLOROQUINE]	–	70.1 µM	–	–	–	–
CCCCCCCCCCCCCCCCOP(=O)([O-])OCC[N+](C)(C)C [MILTEFOSINE]	–	–	0.7 µM	–	–	–
